Results reported in US8715751B2, “Artemisinins in the clinical and veterinary management of kinetoplastid infections” (The United States of America as Represented by the …, priority 2006, dated 2014).
Several values for one entry are separate records, joined by “and”; a condition that tells them apart may be missing. Identical values can stand only once. Like-named read-outs stand apart in the source and are kept apart here.

Tests used:
[1] = cited from earlier work
[2] = test system: Leishmania major ATCC 50122 amastigotes; assay: In vitro amastigote/macrophage culture drug screening; type: cell-based; details: for effectiveness ranking of the compounds in the screen: 2.0 μM initial screen
Method: Preliminary drug screening (in vitro amastigote/macrophage culture) of artemisinin and artelinic acid compounds.
The four compounds were dissolved in the respective solvents as indicated in the table below (Table 1) and were tested against Leishmania major ATCC 50122 amastigotes in vitro in a mouse macrophage system. A positive (Pentostam) and negative (culture medium) controls were set for each plate. Compounds were tested at 2.0 μM in a total volume of 2-0 mls. Drug was added to well every 4 hours×1, 2 and 3, and results shown in (Table 2) below.
Because of the high potency of Artelinic acid relative to the other compounds, the experiments were repeated with different doses of Artelinic acid alone.

[3] = test system: HeLa S3 cells; assay: Cytotoxicity assay in vitro (MTT); type: cell-based, human; details: 1 μg/mL
Method: An axenic culture of human carcinoma HeLa S3 cell line was established in Dulbecco's Modified Eagle's Medium (D-MEM, Sigma) supplemented with 4500 mg glucose/L, L-glutamine, NaHCO3, and pyridoxine HCl, to which 10% heat-inactivated (56° C., 40 min) fetal bovine serum (FBS, MultiSer) was added. Plant chromatographic fractions, which have shown potent trypanocidal activity in vitro, were selected for cytotoxicity assay. Previously dissolved in neat DMSO (Wako-for biochemical assay), an aliquot of 10 μL of each test sample was diluted in 490 μL of the cell culture medium with the intent of decreasing the DMSO concentration to 2% in the medium. HeLa S3 cells maintained in culture dish (Sumilon) were washed with Dulbecco's phosphate saline buffer (-) [DPBS (-), Nissui Pharmaceutical Co., Ltd] after syphonating the culture medium. Adherent cells were released from their dish bottom substrate by adding trypsin (Nacalai) and gently tapping with hand on the round lateral side of the dish. […] After shaking ([…]) for 3-5 min, the absorbance in each well was measured at 540 nm in a microtiter plate reader (ImmunoMini NJ-2300). The percentage of cytotoxicity (growth inhibition level) was calculated as (A-B)/A×100, where A is the mean optical density of negative control wells and B is the mean optical density of test sample wells.

[4] = test system: Trypanosoma brucei brucei; assay: In vitro trypanocidal assay (microscopic viability, bloodstream forms); type: cell-based; details: 1 μg/mL, 24-hr incubation, read-out: growth inhibition against T. b. brucei
Method: Culture suspension of Trypanosoma brucei brucei (T. b. brucei) was obtained from Research Institute for Microbial Diseases (Osaka University, Japan). Trypanosomes were subcultured in appropriate medium (see 5.1.2) as frequently as needed to avoid overgrowth, and maintained in culture flasks at 37° C. in a humidified, 5% CO2 atmosphere incubator. In addition, parasite culture stabilates were prepared by suspending trypanosomes centrifugation (1500 rpm, room temperature, 3 min) pellet in 1 mL of a mixture of […] (v/v) trypanosome dilution buffer and 33% (v/v) glycerol. The whole volume was transferred into cryotubes and stored at −80° C. until further needed. […]
All fractions obtained stepwise in the course of the separation process of the plant crude extracts were assessed for their in vitro activity against T. b. brucei. […] Trypanosomes were harvested at late exponential growth level, counted with a hemocytometer (Erma Tokyo 7059), and resuspended by appropriate dilution in culture medium for achieving a final density of 1×10^4 cells/mL. […] After successively 24, 48, and 72 hr-incubations, parasites viability was determined by observing directly inside the wells of the microculture plate with an optical microscope (Injectoscope model IMT-YF/Olympus). […]

[5] = test system: Leishmania major lesions; assay: In vivo testing in BALB/c mice, Leishmania footpad lesion; details: for Lesion Size (mm) Post-Rx: daily for one week, 9 days after commencement; for Lesion Size (mm) Pre-Rx: prior to dosing
Method: One foot pad was infected with infective Leishmania promastigotes while the other foot served as control. After the infected foot pads had developed lesions, mice with similar size lesions were selected and treated daily with test article for one week. The first doses were administered on 18 May. Lesions were measured with calipers prior to dosing and 9 days after commencement of treatment (27 May) and the difference in lesion size calculated. The thickness of the uninfected footpad was also measured. […] Test articles were administered orally and intra-peritoneally (ip).

[6] = test system: Leishmania major ATCC 50122 amastigotes; assay: In vitro amastigote/macrophage culture drug screening; type: cell-based; details: added once

Structure (SMILES): Cc1ccc(C(=O)Nc2ccc(S(=O)(=O)O)c3cc(S(=O)(=O)O)cc(S(=O)(=O)O)c23)cc1NC(=O)c1cccc(NC(=O)Nc2cccc(C(=O)Nc3cc(C(=O)Nc4ccc(S(=O)(=O)O)c5cc(S(=O)(=O)O)cc(S(=O)(=O)O)c45)ccc3C)c2)c1 [Suramin]
- oral bioavailability [1]: no oral bioavailability

Structure (SMILES): C[C@@H]1CC[C@H]2[C@@H](C)C(=O)O[C@@H]3O[C@@]4(C)CC[C@@H]1[C@]32OO4 [Artemisinin, (+)-artemisinin]
- killing of / potency against Leishmania parasites within mouse macrophages in vitro [2]: results were duplicated
- effectiveness ranking of the compounds in the screen [2]: Artelinic acid>>>Dihydroartemisinin>Beta Arteether>>Artemisinin
- parasites per macrophage ([2]; 2.0 μM, compound added q4 h × 1): between 4-7
- cytotoxic level in vitro [3]: 17.3%
- inhibition at 1 µg/mL [4]: ≥ 80%

Structure (SMILES): CCO[C@H]1O[C@@H]2O[C@@]3(C)CC[C@H]4[C@H](C)CC[C@@H]([C@H]1C)[C@@]24OO3 [Beta Arteether, Beta-Arteether]
- effectiveness ranking of the compounds in the screen [2]: Artelinic acid>>>Dihydroartemisinin>Beta Arteether>>Artemisinin

Structure (SMILES): N=C(N)c1ccc(OCCCCCOc2ccc(C(=N)N)cc2)cc1 [Pentamidine]
- oral bioavailability [1]: no oral bioavailability

Structure (SMILES): C[C@H]1[C@@H](OCc2ccc(C(=O)O)cc2)O[C@@H]2O[C@@]3(C)CC[C@H]4[C@H](C)CC[C@@H]1[C@@]24OO3 [Artelinic acid, artelinic acid]
- killing of / potency against Leishmania parasites within mouse macrophages in vitro [2]: marked potency
- effectiveness ranking of the compounds in the screen [2]: Artelinic acid>>>Dihydroartemisinin>Beta Arteether>>Artemisinin
- observation on Leishmania amastigotes ([2]; 2.0 μM, added once): All the leishmania amastigotes were cleared
- clearance of amastigotes in macrophages ([2]; 2 uM, initial screen): cleared all of the amastigates in macrophages
- lowest concentration at which killing of intracellular amastigotes was noted ([2]; dose response, added once): 0.1 µM
- lowest dose at which clearance was complete ([2]; dose response, added once): 0.25 µM
- Lesion Size (mm) Post-Rx ([5]; 4 ul/Kg, IP): 2.1 mm and 2.2 mm and 2.0 mm
- Lesion Size (mm) Pre-Rx ([5]; 4 ul/Kg, IP): 2.6 mm and 2.5 mm
- Lesion Size (mm) Pre-Rx ([5]; 4 ul/Kg, Oral): 2.7 mm and 2.8 mm
- effectiveness compared with Pentostam, the positive control ([5]; at the doses and route of administration tested): much more effective than Pentostam
- effect on size of Leishmania major footpad lesions ([5]; given orally or ip for one week): decrease in the size of Leishmania major lesions
- observation on Leishmania amastigotes ([6]; 0.25 μM): Cleared all the Leishmania amastigotes
- observation on Leishmania amastigotes ([6]; 0.5 μM): Cleared all the parasites in the cytoplasm
- observation on Leishmania amastigotes ([6]; 1.0 μM): All the amastigotes were cleared from the macrophages

Structure (SMILES): O.O.O.O.O.O.O.O.O.O=C([O-])[C@@H]1[O][Sb](=[O])([O][Sb]2(=[O])[O][C@H]([C@H](O)CO)[C@H](O)[C@H](C(=O)[O-])[O]2)[O][C@H]([C@H](O)CO)[C@@H]1O.[Na+].[Na+].[Na+] (stereo partly drawn) [Pentostam]
- Lesion Size (mm) Post-Rx ([5]; 20 mg/Kg, IP): 2.3 mm and 3.0 mm and 2.7 mm
- Lesion Size (mm) Pre-Rx ([5]; 20 mg/Kg, IP): 2.8 mm and 2.6 mm
- Lesion Size (mm) Post-Rx ([5]; 20 mg/Kg, Oral): 2.6 mm and 2.9 mm
- Lesion Size (mm) Pre-Rx ([5]; 20 mg/Kg, Oral): 2.8 mm and 2.7 mm

Structure (SMILES): Nc1nc(N)nc(Nc2ccc([As]3SCC(CO)S3)cc2)n1 (stereo not drawn) [Melarsoprol]
- oral bioavailability ([1]; po): no oral bioavailability
